The source of these data is patent publication EP0308913A2, “2,6-Methanopyrrolo-3-benzazocines, a process and intermediates for their preparation and their use as medicaments” (HOECHST-ROUSSEL PHARMACEUTICALS INCORPORATED, priority 1987, dated 1989).

Structures are written as SMILES.

The experiment deals with mice. Briefly: modified phenyl-p-quinone writhing assay in mice (analgesia). In kind it is in vivo. As to conditions: Mus musculus, sc; male CD-1 mice; test compound s.c. at peak time before phenyl-p-quinone; calculated ED50 by linear regression; read-out: Analgesic Activity (Inhibition of Writhing ED5Ø (mg/kg, s.c.)) (converted). The method, then:
The 2,6-methanopyrrolo-3-benzazocines of this invention are useful as analgetics due to their ability to alleviate pain in mammals. The procedure employed to determine analgetic utility is a modification of the phenyl-p-quinone writhing assay in mice, a standard assay for analgesia [Proc. Soc. Exptl. Bio. Med., 95 729 (1957)]. In the modified procedure phenyl-p-benzoquinone (Eastman, 12.5 mg) is dissolved in 5 ml of 95% ethanol and the solution is diluted to a total volume of 100 ml with distilled water. The solution is administered to the subject mice […] at a dose of 10 ml per kg of body weight. A characteristic "writh", an inward rotation of one or more feet with twisting and turning of the trunk, drawing in of the abdominal wall, lordosis and arching of the back, is produced.
A total of 28 male mice (Charles River, CD-1), weighing 18 to 30 grams, are employed for a time response. The subject animals receive food and water ad libitum. Test compounds are dissolved in distilled water, or suspended in distilled water containing one drop of a suitable surfactant, such as Tween-80.
Four groups of five animals (20 animals) are given the test compound subcutaneously at 15, 30, 45 and 60 minutes prior to administration of the phenyl-p-quinone. Four control groups of 2 animals (8 animals) receive an equal volume of the vehicle. After the administration of the phenyl-p-quinone, the mice are placed separately in one liter beakers, and after five minutes, are observed for ten minutes. The number of writhes for each animal is recorded. The following formula is used to compute the percent inhibition: [formula]
The time period with the greatest percent of inhibition is considered the peak time. A dose range determination is generally reserved for those compounds which inhibit writhing by greater than 65-70% at the screening dose.
A dose range determination is run in the same manner as the time response except 10 animals per group are tested at the peak time of test drug activity. Fifty animals, 4 test drug groups, and a vehicle control are employed. Animals are dosed and tested in a randomized manner. A calculated ED₅₀, i.e., the dose at which 50% inhibition of writhing is produced, is determined by a computer linear regression analysis. The calculated subcutaneous (s.c.) dose effecting an approximately 50% inhibition of writhing (ED₅₀) in mice produced in this assay is as follows: […]

With `CC1C2Cc3cc4[nH]ccc4cc3C1(C)CCN2C` (stereo not shown) [1,2,3,4,5,6-hexahydro-3,6,12-trimethyl-2,6-methano-10H-pyrrolo[3,2-i][3]benzazocine], the ED50 was 1.8 mg/kg. The figure for `CC1C2Cc3c(ccc4c3C(=O)C(=O)N4)C1(C)CCN2C` (stereo not shown) [1,2,3,4,5,6-Hexahydro-3,6,12-trimethyl-2,6-methanopyrrolo[2,3-j][3]benzazocine-10,11(9H)-dione] is 24.3 mg/kg; for `CC(C)=CCN1CCC2(C)c3cc(O)ccc3CC1C2C` (stereo not shown) [pentazocine, reference compound] it is 1.3 mg/kg; for `CC1C2Cc3c(ccc4[nH]ccc34)C1(C)CCN2C` (stereo not shown) [1,2,3,4,5,6-Hexahydro-3,6,12-trimethyl-2,6-methano-9H-pyrrolo[2,3-j][3]benzazocine] it is 30.4 mg/kg. Turning to `CC1C2Cc3ccc4[nH]ccc4c3C1(C)CCN2C` (stereo not shown) [1,2,3,4,5,6-hexahydro-3,6,12-trimethyl-2,6-methano-9H-pyrrolo[3,2-h][3]benzazocine], the ED50 is 0.6 mg/kg. On to `CC1C2Cc3cc4c(cc3C1(C)CCN2C)NCC4` (stereo not shown) [1,2,3,4,5,6,9,10-Octahydro-3,6,12-trimethyl-2,6-methano-8H-pyrrolo[2,3-i][3]benzazocine], for which the ED50 was 35.5 mg/kg. The same measure for `CC1C2Cc3cc4cc[nH]c4cc3C1(C)CCN2C` (stereo not shown) [1,2,3,4,5,6-Hexahydro-3,6,12-trimethyl-2,6-methano-8H-pyrrolo[2,3-i][3]benzazocine]: 29.5 mg/kg.
